We go through nine molecules from paper PMC4464085, “Exploring monovalent and multivalent peptides for the inhibition of FBP21-tWW” (Beilstein Journal of Organic Chemistry, 2015).

Ends that are not written are not given here.

The target of one test is T1, FBP21-WW2 (Homo sapiens, UniProt O75554).
T1 construct: with regard to FBP21’s WW domains by ITC; GST (N); made in house; host or cells: E. coli BL21 DE3 (pGEX4T1)
T1 sequence (O75554 163-196 limits assumed): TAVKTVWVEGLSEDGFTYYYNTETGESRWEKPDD
The test can be described thus: Isothermal titration calorimetry (ITC) with FBP21-WW2. Type of test: binding. Particulars: PBS pH 7.4, 25 °C, protein in cell 250 µM, peptide in syringe 5 mM, GST-tagged FBP21-WW2. The method, then:
(§1) Isothermal titration calorimetry
(§2) The His6-FBP21-tWW, FBP21-WW1 and FBP21-WW2 were dialyzed against PBS, pH 7.4.
(§3) Peptides were dissolved in PBS and the pH was adjusted to 7.4. hPG-peptide conjugate 2 was dialyzed against Millipore water and the buffer components were adjusted to PBS pH 7.4. The concentration was analyzed for all components by measuring absorbance at 280 nm using a Nanodrop2000 (Thermo Scientific). Extinction coefficients were Ɛ = 5500 M−1cm−1 for WPPPPRVPR and Ɛ = 32430 M−1cm−1 for FBP21-tWW. Accounting for the number of peptides on the scaffold, we calculated an extinction coefficient of Ɛ = 38500 M−1cm−1 for the hPG-peptide conjugate 2. ITC experiments were carried out on a Microcal ITC200 (GE Healthcare).
The parameters were set to: temperature 25 °C, spacing: 120 s (for WW1 and WW2 measurements) or 180 s (for tWW measurements), stirring speed: 1000 rpm, feedback gain: high, Filter: 5 s, DP: 7 µcal/s. In ITC measurements with FBP21 WW1 and WW2, the protein in the cell was concentrated to 250 µM, the peptide in the syringe to 5 mM, injected was 1 × 1 µL, then 15 × 2.5 µL. In ITC measurements with FBP21-tWW and peptide the protein concentration in the cell was 200 µM and the peptide concentration in the syringe 4 mM. In ITC measurements with FBP21-tWW and the hPG-peptide conjugate 2, the concentration of 2 in the cell was 90 µM and FBP21-tWW in the syringe 1.4 mM. Injected was 1 × 1 µL, then 19 × 2 µL. The data was analyzed with Origin and the Microcal ITC 200 AddOn. To obtain the stoichiometry (N) and the […]
particles and grown overnight at 30 °C, 250 rpm. The bacteria were pelleted; Phages were precipitated from the supernatant using 20% PEG, 2.5 M NaCl. The precipitated phages were pelleted and washed before resuspension in PBS/30% glycerol.
Protein expression and purification
FBP21-WW1 and FBP21-WW2 were expressed as a GST-tagged variant from pgex4T1 in E. coli BL21 DE3, FBP21-tWW was expressed from a pET28a-His6-FBP21-tWW plasmid in E. coli BL21 DE3 as described previously. Proteins were purified by the corresponding affinity matrices and applied to a HiLoad S75 Superdex 16/60 column in 1 × PBS, pH 7.4.
Proteins were concentrated by Centrifugal Filter Units (regenerated cellulose, 3000 MWCO, […]
SPOT analyses were performed as described. Membranes were blocked with 5% BSA in PBS, washed and incubated with GST, GST-WW1 or GST-WW2 at a concentration of 7.5 µg/mL (GST) or 10 µg/mL (GST-WW1, GST-WW2) respectively overnight at 4 °C. After washing, the spot arrays were incubated with a primary anti-GST antibody (Santa Cruz, GST-Z5, sc-459, 1:1000) for one hour at room temperature in blocking buffer, washed again and incubated for one hour with a secondary anti-rabbit antibody (goat anti-rabbit, Santa Cruz, sc-2004, 1:10000) at room temperature in blocking buffer. The peptide spot arrays were developed with HRP juice purchased from pjk GmbH on an Intas Advanced Fluorescence and ECL imager.
Synthesis of hPG-peptide conjugate 2
The peptide carboxylic acid, i.e., Ac-WPPPPRVPRGSG-COOH (0.0067 mmol, 9 mg), was dissolved in 2 mL dry DMF and cooled down to 0 °C using an ice bath under argon atmosphere.
To the cooled solution, N-hydroxysuccinimide (0.013 mmol, 1.54 mg) and DCC (0.013 mmol, 2.76 mg) were added. The ice bath was removed and the reaction mixture was allowed to stir at room temperature overnight. […]
(Isothermal titration calorimetry measures the heat released or taken up as one component is titrated into another.)

For a further test, the target named is T2, FBP21-WW1 (Homo sapiens, UniProt O75554).
T2 construct: with regard to FBP21’s WW domains by ITC; GST (N); made in house; host or cells: E. coli BL21 DE3 (pGEX4T1)
T2 sequence (O75554 122-155 limits assumed): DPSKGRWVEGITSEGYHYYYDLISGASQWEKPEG
The test can be described thus: Isothermal titration calorimetry (ITC) with FBP21-WW1. Particulars: PBS pH 7.4, 25 °C, protein in cell 250 µM, peptide in syringe 5 mM, GST-tagged FBP21-WW1. Type of test: binding. The method, then: In order to determine an optimal peptide sequence for a FBP21-tWW ligand, we conducted a phage display experiment for each of the two WW domains. Phages used in these experiments carried a randomized X9-peptide fused to phage coat protein VIII [16]. Enrichment factors were calculated after each selection cycle, and reached a plateau after four panning rounds. Phagemids were isolated and sequenced after the third and fourth panning rounds. The sequences for WW1 and WW2 were overlapping to a large extent, showing their similarity in binding preference. This is expected from evolutionary and binding studies carried out earlier. In agreement with previous findings for this group of WW domains a polyproline stretch and an arginine residue are present in most sequenced clones. […] To define an optimized single monovalent binder, we analyzed the affinities for a selected set of ligands from this panel of sequences with regard to FBP21’s WW domains by ITC under the same conditions as were used for the phage display. […] To further analyze which residues are essential for the interaction, we performed substitution analyses using peptide SPOT arrays (Figure 1D, Supporting Information File 1 Figure S1). The experiment gives some insight into binding specificities. The central role of proline P5 for binding of peptides is evident for both WW domains (Figure 1D, Supporting Information File 1 Figure S1). Proline fulfills two requirements. On the one hand it promotes formation of the PPII helix conformation, on the other hand, it is accommodated well into the hydrophobic groove provided by the individual WW domains. At position P4 proline can be replaced by leucine, a residue well compatible with the PPII helical conformation. Arginine is preferred at position 6 or 9, highlighting the importance of a positive charge in complex formation. […] Possibly, the hybrid resonance of the guanidinium group in the arginine is more important in the case of WW2 compared to WW1. […]
as §1, §2, §3
The parameters were set to: temperature 25 °C, spacing: 120 s (for WW1 and WW2 measurements) or 180 s (for tWW measurements), stirring speed: 1000 rpm, feedback gain: high, Filter: 5 s, DP: 7 µcal/s. In ITC measurements with FBP21 WW1 and WW2, the protein in the cell was concentrated to 250 µM, the peptide in the syringe to 5 mM, injected was 1 × 1 µL, then 15 × 2.5 µL. In ITC measurements with FBP21-tWW and peptide the protein concentration in the cell was 200 µM and the peptide concentration in the syringe 4 mM. […] The data was analyzed with Origin and the Microcal ITC 200 AddOn. […]
FBP21-WW1 and FBP21-WW2 were expressed as a GST-tagged variant from pgex4T1 in E. coli BL21 DE3, FBP21-tWW was expressed from a pET28a-His6-FBP21-tWW plasmid in […]

For another test, the target named is T3, FBP21-tWW (Homo sapiens, UniProt O75554).
T3 construct: made in house; host or cells: E. coli BL21 DE3 (pET28a)
T3 sequence (O75554 122-196 limits assumed): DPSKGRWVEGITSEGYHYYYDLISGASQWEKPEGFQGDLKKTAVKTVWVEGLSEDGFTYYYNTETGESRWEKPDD
The test can be described thus: Isothermal titration calorimetry (ITC) with FBP21-tWW. Type of test: binding. Particulars: PBS pH 7.4, 25 °C. How it is done: ITC measurements were performed to analyze the dissociation constant KD of the interaction between FBP21-tWW and hPG-peptide conjugate 2 in PBS, pH 7.4 (Figure 2A). To compare the KD values we also analyzed the binding between FBP21-tWW and the monovalent peptide ligand Ac-WPPPPRVPRGSG-COOH (Figure 2B). […] However, when considering that ≈7 peptides are bound per nanoparticle, the actual multivalency effect is small.
Gel permeation chromatography (GPC)
Molecular weight distribution of hPG-OH core was determined by means of GPC coupled to a refractive index detector (RI) obtaining the complete distribution (Mn, Mp, Mw, dispersity).
Measurements were carried out under highly diluted conditions (5 mg/mL) from a GPC consisting of an Agilent 1100 solvent delivery system with pump, manual injector, and an Agilent differential refractometer. Three 30 cm columns (PPS: Polymer Standards Service GmbH, Germany; Suprema 100 Å, 1000 Å, 3000 Å with 5 and 10 μm particle size) were used to separate aqueous polymer samples using water with 0.1 M NaNO3 as the mobile phase at a flow rate of 1 mL/min. The columns were operated at room temperature with the RI detector at 50 °C. […]
Peptides were dissolved in PBS and the pH was adjusted to 7.4. hPG-peptide conjugate 2 was dialyzed against Millipore water and the buffer components were adjusted to PBS pH 7.4. The concentration was analyzed for all components by measuring absorbance at 280 nm using a Nanodrop2000 (Thermo Scientific). […] Accounting for the number of peptides on the scaffold, we calculated an extinction coefficient of Ɛ = 38500 M−1cm−1 for the hPG-peptide conjugate 2. […]
The parameters were set to: temperature 25 °C, spacing: 120 s (for WW1 and WW2 measurements) or 180 s (for tWW measurements), stirring speed: 1000 rpm, feedback gain: high, Filter: 5 s, DP: 7 µcal/s. […] The data was analyzed with Origin and the Microcal ITC 200 AddOn. […]
FBP21-WW1 and FBP21-WW2 were expressed as a GST-tagged variant from pgex4T1 in E. coli BL21 DE3, FBP21-tWW was expressed from a pET28a-His6-FBP21-tWW plasmid in E. coli BL21 DE3 as described previously. […]

A further test has as its target T4, WPPPPRVPR peptide.
T4 chain: WPPPPRVPR
In words: ITC.

The target in the next test is T5, hPG-peptide conjugate 2 (also: multivalent conjugation to hyperbranched polyglycerol amine (about 7 peptides per polymer), site not given here).
T5 chain: Ac-WPPPPRVPRGSG
In words: ITC.

Another test addresses T6, Ac-WPPPPRVPRGSG-COOH.
T6 chain: Ac-WPPPPRVPRGSG-OH
In words: ITC.

What is called Kd is the equilibrium constant for the complex coming apart. Regarding YPRPTNPRP [YPRPTNPRP], the Kd on FBP21-WW2 was 270 ± 24 µM; at FBP21-WW1 it was 490 ± 54 µM.

On to Ac-WPPPPRVPR [WPPPPRVPR], for which the equilibrium dissociation constant (Kd) on FBP21-WW2 is 87 ± 3.4 µM; on FBP21-WW1 it was 155 ± 18 µM.

For the molecule YPRPPGPPP [YPRPPGPPP], the Kd worked out at 68.5 ± 6.9 µM at FBP21-WW2 and 452 ± 45 µM on FBP21-WW1.

As to RPPPPHFPQ, the “WW2 KD” value on FBP21-WW2 was “could not be confirmed as a binder”. Moreover, the “WW1 KD” value on FBP21-WW1 is on record as “could not be confirmed as a binder”.

With RPPCGYPLP, the “WW2 KD” value at FBP21-WW2 was “did not show any binding”. In addition, the “WW1 KD” value on FBP21-WW1 was “did not show any binding”.

For the molecule Ac-WPPPPRVPRGSG [Ac-WPPPPRVPRGSG-COOH], at FBP21-tWW (FBP21-tWW), the “entropy loss upon interaction” value is −19.5 cal/mol/deg and the “stoichiometric factor derived from the fit (N)” value stood at 1.29 ± 0.0257. The Kd on FBP21-tWW (His6-FBP21-tWW, peptide: protein in cell 200 µM, peptide in syringe 4 mM, conjugate 2: 90 µM in cell, FBP21-tWW 1.4 mM in syringe, read-out: KD of the interaction with FBP21-tWW) is 150 ± 6 µM.

B1: FBP21 WW1 WW1 (peptide)
chain: RKKDPSKGRWVEGITSEGYHYYYDLISGASQWEKPEGFQG
B1 gave a Kd with WPPPPRVPR peptide of 155 µM.

B2: FBP21 WW2 WW2 (peptide)
chain: LKKTAVKTVWVEGLSEDGFTYYYNTETGESRWEKPDDFIP
In the test with WPPPPRVPR peptide, B2 showed a Kd of 87 µM.

B3: FBP21-tWW WW1-WW2 (protein)
chain: T3 sequence (O75554 122-196 limits assumed)
With B3, the Kd in the test with hPG-peptide conjugate 2 came to 17.6 µM; with Ac-WPPPPRVPRGSG-COOH, 150 µM.
